In article PMC5448077, “Development of an orally available inhibitor of CLK1 for skipping a mutated dystrophin exon in Duchenne muscular dystrophy” (Scientific Reports, 2017):

Tests used:
Experiment in all cases: biochemical
[1] = target: JAK3 (Homo sapiens, UniProt P52333)
Protocol: (§1) These assays rely on the phosphorylation of small synthetic peptides developed for each kinase, and detect activity by changes in electrophoretic mobility (MSA assay) or by binding of a fluorescently labelled peptide to a large micro-particle and concomitant polarization increases (IMAP assay). Reaction conditions for each kinase are described in Supplementary Table S5. All kinase assays were carried out at Carna Biosciences (Kobe, Japan). The inhibitory map was constructed using Kinome Render[41]. Inhibitor (4×), substrate/ATP-Metal (4×), and kinase (2×) solutions were prepared with assay buffer (20 mM HEPES, 0.01% Triton X-100, 2 mM DTT, pH 7.5) and mixed in 384-well plates at room temperature for 1 or 5 h depending on the kinase. Reactions were stopped by the addition of termination buffer (QuickScout Screening Assist MSA; Carna Biosciences). The entire reaction mixture was then applied to a LabChip system (Perkin-Elmer, Waltham, MA, USA) and the product and substrate peptide peaks were separated and quantified, and then heights of product (P) and substrate (S) peptide peaks were calculated. The level of kinase activity was evaluated with the following equation: activity = P/(P + S).

[2] = target: TXK (Homo sapiens, UniProt P42681)
Protocol: as §1

[3] = target: T1, PDHK2 (Homo sapiens, UniProt Q15119)
T1 construct: gene PDK2
Protocol: as §1

[4] = target: T2, AurA (Homo sapiens, UniProt O14965)
T2 construct: gene AURKA
Protocol: as §1

[5] = target: T3, CRIK (Homo sapiens, UniProt O14578)
T3 construct: gene CIT
Protocol: as §1

[6] = target: JAK2 (Homo sapiens, UniProt O60674)
Protocol: as §1

[7] = target: FLT3 (Homo sapiens, UniProt P36888)
Protocol: as §1

[8] = target: PRKX (Homo sapiens, UniProt P51817)
Protocol: as §1

[9] = target: MET(M1250T) (Homo sapiens, UniProt P08581, M1250T)
Protocol: as §1

[10] = target: CDK2/CycE1 (Homo sapiens, UniProt P24941)
Protocol: as §1

[11] = target: EPHB2 (Homo sapiens, UniProt P29323)
Protocol: as §1

[12] = target: ITK (Homo sapiens, UniProt Q08881)
Protocol: as §1

[13] = target: KIT(V654A) (Homo sapiens, UniProt P10721, V654A)
Protocol: as §1

[14] = target: T4, CaMK2α (Homo sapiens, UniProt Q9UQM7)
T4 construct: gene CAMK2A
Protocol: as §1

[15] = target: HIPK2 (Homo sapiens, UniProt Q9H2X6)
Protocol: as §1

[16] = target: TNK1 (Homo sapiens, UniProt Q13470)
Protocol: as §1

[17] = target: ALK (Homo sapiens, UniProt Q9UM73)
Protocol: as §1

[18] = target: MET(Y1235D) (Homo sapiens, UniProt P08581, Y1235D)
Protocol: as §1

[19] = target: LTK (Homo sapiens, UniProt P29376)
Protocol: as §1

[20] = target: T5, MST4 (Homo sapiens, UniProt Q9P289)
T5 construct: gene STK26
Protocol: as §1

[21] = target: T6, IKKβ (Homo sapiens, UniProt O14920)
T6 construct: gene IKBKB
Protocol: as §1

[22] = target: PLK1 (Homo sapiens, UniProt P53350)
Protocol: as §1

[23] = target: SGK3 (Homo sapiens, UniProt Q96BR1)
Protocol: as §1

[24] = target: FER (Homo sapiens, UniProt P16591)
Protocol: as §1

[25] = target: IGF1R (Homo sapiens, UniProt P08069)
Protocol: as §1

[26] = target: T7, CHK2 (Homo sapiens, UniProt O96017)
T7 construct: gene CHEK2
Protocol: as §1

[27] = target: KIT(D816E) (Homo sapiens, UniProt P10721, D816E)
Protocol: as §1

[28] = target: T8, PKCδ (Homo sapiens, UniProt Q05655)
T8 construct: gene PRKCD
Protocol: as §1

[29] = target: EGFR(L861Q) (Homo sapiens, UniProt P00533, L861Q)
Protocol: as §1

[30] = target: ALK(R1275Q) (Homo sapiens, UniProt Q9UM73, R1275Q)
Protocol: as §1

[31] = target: TEC (Homo sapiens, UniProt P42680)
Protocol: as §1

JAK2, sequence (O60674 whole entry): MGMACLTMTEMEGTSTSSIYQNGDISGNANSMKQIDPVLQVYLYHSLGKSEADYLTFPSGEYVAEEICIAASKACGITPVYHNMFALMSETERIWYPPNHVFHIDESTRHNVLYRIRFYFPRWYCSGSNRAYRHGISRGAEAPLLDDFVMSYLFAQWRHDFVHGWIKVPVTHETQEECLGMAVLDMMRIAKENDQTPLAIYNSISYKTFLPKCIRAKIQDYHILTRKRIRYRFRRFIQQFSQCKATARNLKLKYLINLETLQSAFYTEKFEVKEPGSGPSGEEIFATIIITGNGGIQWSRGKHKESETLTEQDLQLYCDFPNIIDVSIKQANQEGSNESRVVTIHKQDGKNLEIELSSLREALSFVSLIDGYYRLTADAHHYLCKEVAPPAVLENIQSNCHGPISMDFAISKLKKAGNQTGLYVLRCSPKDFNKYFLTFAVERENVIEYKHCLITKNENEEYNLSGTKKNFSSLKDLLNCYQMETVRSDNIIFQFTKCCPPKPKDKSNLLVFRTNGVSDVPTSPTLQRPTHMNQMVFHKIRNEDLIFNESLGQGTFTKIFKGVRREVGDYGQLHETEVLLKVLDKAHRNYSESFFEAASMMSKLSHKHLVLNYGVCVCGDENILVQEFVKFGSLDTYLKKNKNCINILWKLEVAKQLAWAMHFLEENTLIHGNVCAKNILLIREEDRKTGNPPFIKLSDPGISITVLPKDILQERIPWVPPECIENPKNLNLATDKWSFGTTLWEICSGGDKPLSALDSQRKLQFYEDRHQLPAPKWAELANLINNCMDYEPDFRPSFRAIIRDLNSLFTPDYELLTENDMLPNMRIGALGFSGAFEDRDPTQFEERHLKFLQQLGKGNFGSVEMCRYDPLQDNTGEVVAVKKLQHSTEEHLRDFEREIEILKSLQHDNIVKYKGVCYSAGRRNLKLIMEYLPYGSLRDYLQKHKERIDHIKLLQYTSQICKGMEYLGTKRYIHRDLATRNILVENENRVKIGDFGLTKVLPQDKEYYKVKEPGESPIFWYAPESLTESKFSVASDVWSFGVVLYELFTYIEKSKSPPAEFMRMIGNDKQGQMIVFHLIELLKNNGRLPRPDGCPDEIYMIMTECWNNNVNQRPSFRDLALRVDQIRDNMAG
ALK, sequence (Q9UM73 whole entry): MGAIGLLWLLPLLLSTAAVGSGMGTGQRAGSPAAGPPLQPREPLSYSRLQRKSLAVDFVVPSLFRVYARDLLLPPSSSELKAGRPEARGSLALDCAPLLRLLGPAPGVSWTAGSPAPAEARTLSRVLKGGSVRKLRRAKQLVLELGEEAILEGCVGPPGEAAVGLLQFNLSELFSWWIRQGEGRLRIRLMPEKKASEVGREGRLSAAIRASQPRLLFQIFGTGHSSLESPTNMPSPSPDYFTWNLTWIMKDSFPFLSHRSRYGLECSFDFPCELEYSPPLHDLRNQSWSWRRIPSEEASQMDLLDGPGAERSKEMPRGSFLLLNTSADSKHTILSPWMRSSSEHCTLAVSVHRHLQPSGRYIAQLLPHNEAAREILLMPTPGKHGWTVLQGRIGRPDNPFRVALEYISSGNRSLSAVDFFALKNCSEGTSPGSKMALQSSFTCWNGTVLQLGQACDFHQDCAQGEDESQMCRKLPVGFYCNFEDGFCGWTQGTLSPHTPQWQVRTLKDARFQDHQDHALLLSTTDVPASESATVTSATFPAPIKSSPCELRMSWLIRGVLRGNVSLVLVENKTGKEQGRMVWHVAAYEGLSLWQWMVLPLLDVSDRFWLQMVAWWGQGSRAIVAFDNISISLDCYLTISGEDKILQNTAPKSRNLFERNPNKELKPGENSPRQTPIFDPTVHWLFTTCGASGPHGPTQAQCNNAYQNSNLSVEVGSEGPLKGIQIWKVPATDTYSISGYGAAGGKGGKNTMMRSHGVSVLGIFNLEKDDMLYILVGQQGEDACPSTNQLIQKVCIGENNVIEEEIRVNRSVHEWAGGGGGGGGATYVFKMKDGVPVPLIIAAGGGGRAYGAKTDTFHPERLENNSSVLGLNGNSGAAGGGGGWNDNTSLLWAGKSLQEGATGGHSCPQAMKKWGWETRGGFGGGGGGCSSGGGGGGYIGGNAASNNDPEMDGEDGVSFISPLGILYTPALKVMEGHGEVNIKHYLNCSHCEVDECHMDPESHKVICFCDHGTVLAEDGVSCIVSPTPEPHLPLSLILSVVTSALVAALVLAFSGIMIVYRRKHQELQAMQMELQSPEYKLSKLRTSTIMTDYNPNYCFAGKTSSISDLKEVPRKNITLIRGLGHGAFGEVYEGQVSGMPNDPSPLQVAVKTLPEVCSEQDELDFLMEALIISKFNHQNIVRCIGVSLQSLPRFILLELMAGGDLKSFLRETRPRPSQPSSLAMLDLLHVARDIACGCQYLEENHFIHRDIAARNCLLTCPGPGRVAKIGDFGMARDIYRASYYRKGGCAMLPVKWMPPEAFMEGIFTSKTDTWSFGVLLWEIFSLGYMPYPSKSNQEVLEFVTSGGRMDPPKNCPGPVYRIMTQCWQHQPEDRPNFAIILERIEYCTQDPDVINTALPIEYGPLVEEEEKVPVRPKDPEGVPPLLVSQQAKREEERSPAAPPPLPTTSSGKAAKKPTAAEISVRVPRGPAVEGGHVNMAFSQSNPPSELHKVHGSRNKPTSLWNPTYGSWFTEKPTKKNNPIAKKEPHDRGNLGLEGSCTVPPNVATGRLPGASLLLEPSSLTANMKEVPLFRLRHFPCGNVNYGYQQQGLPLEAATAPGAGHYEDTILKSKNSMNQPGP
TNK1, sequence (Q13470 whole entry): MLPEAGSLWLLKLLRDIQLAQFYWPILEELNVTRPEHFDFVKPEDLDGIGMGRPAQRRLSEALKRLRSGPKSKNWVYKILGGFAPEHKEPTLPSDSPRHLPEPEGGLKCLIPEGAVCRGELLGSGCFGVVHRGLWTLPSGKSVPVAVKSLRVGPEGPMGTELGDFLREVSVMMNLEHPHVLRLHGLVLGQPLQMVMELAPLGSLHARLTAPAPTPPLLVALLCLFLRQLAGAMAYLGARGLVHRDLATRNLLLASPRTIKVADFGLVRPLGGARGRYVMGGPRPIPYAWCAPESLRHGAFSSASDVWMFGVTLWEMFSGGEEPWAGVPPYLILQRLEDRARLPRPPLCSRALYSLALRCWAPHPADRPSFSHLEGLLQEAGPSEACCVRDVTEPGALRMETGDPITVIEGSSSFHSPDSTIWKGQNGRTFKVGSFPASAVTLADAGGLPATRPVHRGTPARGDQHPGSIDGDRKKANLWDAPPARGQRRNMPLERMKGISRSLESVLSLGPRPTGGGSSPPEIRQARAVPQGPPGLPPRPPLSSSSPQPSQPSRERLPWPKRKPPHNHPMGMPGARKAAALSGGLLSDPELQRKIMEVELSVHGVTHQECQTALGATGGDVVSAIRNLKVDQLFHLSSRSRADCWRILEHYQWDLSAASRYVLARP
T4 sequence (Q9UQM7 whole entry): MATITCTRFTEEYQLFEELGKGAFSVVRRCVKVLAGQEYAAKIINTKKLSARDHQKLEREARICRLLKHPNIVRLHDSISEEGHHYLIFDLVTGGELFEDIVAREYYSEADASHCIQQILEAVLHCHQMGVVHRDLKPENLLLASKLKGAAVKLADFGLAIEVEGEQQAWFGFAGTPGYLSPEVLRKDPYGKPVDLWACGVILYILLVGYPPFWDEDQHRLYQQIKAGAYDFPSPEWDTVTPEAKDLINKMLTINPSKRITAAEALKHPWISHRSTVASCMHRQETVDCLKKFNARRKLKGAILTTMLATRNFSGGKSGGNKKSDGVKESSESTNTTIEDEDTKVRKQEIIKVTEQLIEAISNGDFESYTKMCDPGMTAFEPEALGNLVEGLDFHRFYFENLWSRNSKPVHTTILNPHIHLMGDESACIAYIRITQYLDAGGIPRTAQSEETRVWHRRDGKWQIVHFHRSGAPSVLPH
T6 sequence (O14920 whole entry): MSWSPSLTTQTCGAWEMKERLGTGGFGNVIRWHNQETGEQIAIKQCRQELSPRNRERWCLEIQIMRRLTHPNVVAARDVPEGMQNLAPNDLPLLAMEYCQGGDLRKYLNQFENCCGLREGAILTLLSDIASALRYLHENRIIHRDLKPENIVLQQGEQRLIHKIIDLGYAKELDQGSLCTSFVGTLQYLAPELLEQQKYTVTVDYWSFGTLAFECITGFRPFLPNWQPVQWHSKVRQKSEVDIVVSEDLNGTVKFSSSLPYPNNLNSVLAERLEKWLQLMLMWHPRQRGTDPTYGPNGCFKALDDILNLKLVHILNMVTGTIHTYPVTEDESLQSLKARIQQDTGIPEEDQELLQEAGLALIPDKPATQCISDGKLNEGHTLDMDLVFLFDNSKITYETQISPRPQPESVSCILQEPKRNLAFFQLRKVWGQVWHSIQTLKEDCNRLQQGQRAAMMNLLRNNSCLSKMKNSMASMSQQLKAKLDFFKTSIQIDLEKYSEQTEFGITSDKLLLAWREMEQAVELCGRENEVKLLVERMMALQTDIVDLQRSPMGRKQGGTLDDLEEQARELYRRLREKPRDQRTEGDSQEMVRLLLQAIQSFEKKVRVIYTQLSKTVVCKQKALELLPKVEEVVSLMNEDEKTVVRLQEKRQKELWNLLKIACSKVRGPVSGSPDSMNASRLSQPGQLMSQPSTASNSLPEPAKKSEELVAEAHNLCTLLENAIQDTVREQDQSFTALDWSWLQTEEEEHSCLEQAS
T2 sequence (O14965 whole entry): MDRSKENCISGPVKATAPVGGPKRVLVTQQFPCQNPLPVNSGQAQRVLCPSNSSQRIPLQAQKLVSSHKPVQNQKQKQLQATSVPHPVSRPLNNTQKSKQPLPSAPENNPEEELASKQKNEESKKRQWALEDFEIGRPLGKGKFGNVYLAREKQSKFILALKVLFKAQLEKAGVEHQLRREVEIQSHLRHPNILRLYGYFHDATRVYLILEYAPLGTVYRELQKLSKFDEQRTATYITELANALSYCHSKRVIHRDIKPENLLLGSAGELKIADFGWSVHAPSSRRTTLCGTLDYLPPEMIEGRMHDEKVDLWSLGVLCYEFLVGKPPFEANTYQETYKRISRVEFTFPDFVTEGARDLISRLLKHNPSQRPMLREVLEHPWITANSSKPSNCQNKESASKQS
ALK(R1275Q), sequence (Q9UM73 whole entry R1275Q): as the sequence (Q9UM73 whole entry) above, with R1275Q counted along it

c1cc(-c2ccc3[nH]ncc3c2)ccn1 [TG693, 5-(4-pyridinyl)-1H-indazole]
inhibition at 1 µM [1]: 11.6%
inhibition at 1 µM [2]: -1%
inhibition at 1 µM [3]: -0.8%
inhibition at 1 µM [4]: -6.2%
inhibition at 1 µM [5]: 16.9%
inhibition at 1 µM [6]: 7.9%
inhibition at 1 µM [7]: 17.5%
inhibition at 1 µM [8]: 12.2%
inhibition at 1 µM [9]: -0.8%
inhibition at 1 µM [10]: 18.1%
inhibition at 1 µM [11]: 0.3%
inhibition at 1 µM [12]: 2.8%
inhibition at 1 µM [13]: -1.5%
inhibition at 1 µM [14]: -3.3%
inhibition at 1 µM [15]: -2%
inhibition at 1 µM [16]: 3.8%
inhibition at 1 µM [17]: 6.1%
inhibition at 1 µM [18]: -2%
inhibition at 1 µM [19]: 3%
inhibition at 1 µM [20]: 4.1%
inhibition at 1 µM [21]: 14.6%
inhibition at 1 µM [22]: -8.5%
inhibition at 1 µM [23]: -3.2%
inhibition at 1 µM [24]: 4.4%
inhibition at 1 µM [25]: 3.3%
inhibition at 1 µM [26]: -1%
inhibition at 1 µM [27]: -6.8%
inhibition at 1 µM [28]: 1.5%
inhibition at 1 µM [29]: -5.4%
inhibition at 1 µM [30]: -7.6%
inhibition at 1 µM [31]: -0.4%
